Laboratory results published in patent publication US12599560B2, “Lipids and lipid nanoparticle formulations” (Longuide Biopharma Corporation, priority 2023, dated 2026).

Tests used:
[1] = system: mice; assay: In vivo delivery of FLuc-mRNA lipid nanoparticle preparations in mice (IVIS imaging); design: In vivo IVIS / In vivo IVIS (liver) / In vivo IVIS (spleen): unit not given here; conditions: for in vivo delivery efficiency as compared to the benchmark compound SM102: certain formulations
Procedure: 7. In Vivo Delivery of the Nucleic Acid Lipid Nanoparticle Preparations in Mice After the preparation was completed, the preparation was injected intramuscularly (mice rectus femoris muscle of the thigh) or intravenously (mice tail vein), with approximately 75 μL per mouse, for a total of 3 mice. After a certain time of injection, in vivo imaging (PerkinElmer, IVIS Lumina III) was performed. 10-15 minutes before imaging, 200 μL of 15 mg/mL D-Luciferin working solution was injected intraperitoneally, and the imaging analysis was performed using an in vivo imager.

[2] = Particle size and PDI by dynamic light scattering; assay type: physicochemical
Procedure: The 7.5 μL nucleic acid lipid nanoparticle solution (containing approximately 0.04 mg/mL mRNA) was taken and added with 200 μL ultrapure water, mixed by gentle blowing using a pipette tip, and the particle size of the nanopreparation was detected by dynamic lightscattering (DLS) using a Malvern Dynamic Light Scattering Instrument (Malvern Instruments Ltd., ZEN3700, UK). 27.5 μL nucleic acid lipid nanoparticle solution (containing about 0.04 mg/mL mRNA) was taken and added with 200 μL ultrapure water. A pipette tip was used to gently blow the sample and mix well. The particle size of the nanopreparation was detected by Malvern Dynamic Light Scattering Instrument (Malvern Instruments Ltd., ZEN3700, UK). After the detection, the sample was recovered to an EP tube, and 600 μL of ultrapure water was added, gently blown with a pipette tip, and the potential of the nanopreparation was measured by a Malvern particle size meter.

[3] = system: Delta-S protein; assay: In vivo immunization with Delta Spike mRNA LNP, serum ELISA for specific antibody; design: species or system mice; conditions: serum after second administration
Procedure: Lipid nanoparticles encapsulating the nucleic acid drugs were prepared according to step 2. The mRNA was replaced with Delta Spike full length mRNA (Shanghai Zhaowei Science and Technology Development Co., Ltd.) and then administered to the mice at a dose of 5 μg per mouse, and on the 14th day after the first immunization, the whole blood of the mice was collected by canthus sampling, and the drug administration was repeated for the second immunization. On the 14th day after the second immunization, the whole blood was collected from mice by canthus sampling. The whole blood was centrifuged at 5000 rcf for 5 mn, and the supernatant was centrifuged at 10000 rcf for 5 min to obtain the serum, which was aliquated into serial tubes and stored in the refrigerator at −20° C.
• 9.2.1 Coating: Add 100 μL of 0.2 μg/100 μL Delta-S protein (Novoprotein Scientific Inc.) dilution solution to each well, and leave it in the refrigerator at 4° C. overnight. • 9.2.2 Washing: Add 200 μL of PBST (PBS buffer solution containing 0.05% Tween-20 at pH 7.4) to each well and wash three times. • 9.2.3 Blocking: Add 200 μL of 5% (w/v) BSA-PBS solution (BSA bovine serum albumin, Bioss Biotechnology Co., Ltd.) to each well, and shake for 2 h at 50 rcf at room temperature using a shaker. • 9.2.4 Washing: Add 200 μL of PBST to each well to wash once. • 9.2.5 Adding samples: Add 100 μL of serum diluted 200 times with PBS (0.5 μL of serum) to each well (for the ELISA titer assay, serum diluted 200 times, 800 times, 3200 times, 12800 times, 51200 times, 204800 times), and shake at room temperature for 2 h at 50 rcf using a shaker. • 9.2.6 Washing: Add 200 μL of PBST into each well for three times. • 9.2.7 Adding detection antibody: Add 100 μL of HRP-labeled goat anti-mouse IgG detection antibody (0.1 μL of antibody master batch) (Sangon Biotech (Shanghai) Co., Ltd.) diluted 1000-fold into each well, and shake at 50 rcf for 1 h at room temperature using a shaker. • 9.2.8 Washing: Add 200 μL of PBST to each well and wash three times. • 9.2.9 Adding TMB (Beijing Solarbio Science & Technology Co., Ltd.): Add 50 μL of TMB mixture with the volume ratio of liquid A:liquid B of 1:1 to each well, and react for 5 mn (ELISA of blood sample I), 7 min 58 sec (ELISA of blood sample II), and react for about 5 min (ELISA titer of blood sample II). • 9.2.10 Adding phosphate (Aladdin Reagent (Shanghai) Co., Ltd.): add 50 μL of 1 mol/L phosphate per well to terminate the reaction. • 9.2.11 Detection: Use multi-function plate reader for detection. 9.3. Neutralization Antibody Levels Detected by Pseudovirus Neutralization Assay • 9.3.1 Cell seeding: 293T-ACE2 cells (Fubio (Suzhou) Biomedical Technology Co., Ltd.) were inoculated with 1×10^5 cells in each well of a 48-well plate at a concentration of 1×10^5 cells in 300 μL of DMEM medium (containing 10% heat-inactivated FBS without bispecific antibody), the 48-well plate was labeled with information such as “number, cell type, number of generations, medium type, date and name”, and then the cells were cultured in a cell culture incubator at 37° C. with 5% CO2 for 18 hours. • 9.3.2 Before the pseudovirus transfection operation, prepare an ice box, re-dissolve the serum to be used on ice, thaw on ice the virus from the −25° C. refrigerator. After thawing, the serum and pseudovirus were flicked homogenously and centrifuged with a palm centrifuge. • 9.3.3 Examine the neutralization antibody with serum diluted in different ratios: use complete culture medium to dilute the pseudovirus (Fubio (Suzhou) Biomedical Technology Co., Ltd.) and mouse serum respectively, mix them well, and then dilute them 40-fold, 100-fold, 250-fold and 625-fold according to the final concentration of the cells of incubation. […]

[4] = Table 2, IV, whole body scan, molar ratio DMG-PEG2000:DSPC:Chol:Lipid and N/P
[5] = Table 2, LNP formulation with mRNA
[6] = Table 4, molar ratio 1.40:11.15:38.95:48.50, N/P 36, IV formulation
[7] = Table 4, molar ratio 2.00:4.00:59.00:35.00, N/P 35, IM formulation

Row | SMILES | In vivo IVIS ([1]; Table 2, IM, whole body scan) | In vivo IVIS [1, 4] | in vivo delivery efficiency as compared to the benchmark compound SM102 ([1]; Table 2) | Particle size (nm) [2, 5] | PDI ([2]; Table 2, polydispersity value) | OD 450 nm-630 nm ([3]; IM) | other results
1 | CCCCCCC(CCCCCC)C(=O)OCCCCCCOC(=O)C(O)CN(CCN1CCN(CCN(CC(O)C(=O)OCCCCCCOC(=O)C(CCCCCC)CCCCCC)CC(O)C(=O)OCCCCCCOC(=O)C(CCCCCC)CCCCCC)CC1)CCN(CC(O)C(=O)OCCCCCCOC(=O)C(CCCCCC)CCCCCC)CC(O)C(=O)OCCCCCCOC(=O)C(CCCCCC)CCCCCC (stereo not shown) [Compound L0203] | 8.01 × 10^7 | 3.89 × 10^8 | superior in vivo delivery efficiency | 126.73 ± 1.50 nm | 0.06 ± 0.01 | 1.72 | –
2 | CCCCCCC(CCCCCC)C(=O)OCCCCCCOC(=O)C(O)CN1CCN(CCN(CC(O)C(=O)OCCCCCCOC(=O)C(CCCCCC)CCCCCC)CC(O)C(=O)OCCCCCCOC(=O)C(CCCCCC)CCCCCC)CC1 (stereo not shown) [Compound L0187] | 9.72 × 10^7 | 1.11 × 10^8 | superior in vivo delivery efficiency | 80.11 ± 0.17 nm | 0.12 ± 0.01 | 1.70 | In vivo IVIS (liver) ([1]; Table 2, IV): 2.46 × 10^7; In vivo IVIS (spleen) ([1]; Table 2, IV): 2.00 × 10^7
3 | CCCCCCOCOCCCCCCOC(=O)C(O)CN(CCN1CCN(CCN(CC(O)C(=O)OCCCCCCOCOCCCCCC)CC(O)C(=O)OCCCCCCOCOCCCCCC)CC1)CCN(CC(O)C(=O)OCCCCCCOCOCCCCCC)CC(O)C(=O)OCCCCCCOCOCCCCCC (stereo not shown) [Compound L0200] | 3.08 × 10^5 | – | superior in vivo delivery efficiency | – | – | – | Particle size (nm) ([2]; Table 2, LNP formulation with mRNA, molar ratio 1.00:7.00:57.00:35.00, N/P 35): 106.93 ± 0.71 nm; Particle size (nm) ([2]; Table 2, LNP formulation with mRNA, molar ratio 1.40:11.15:38.95:48.50, N/P 65): 117.90 ± 0.36 nm; Particle size (nm) ([2]; Table 2, LNP formulation with mRNA, molar ratio 2.00:16.00:22.00:60.00, N/P 35): 104.50 ± 0.26 nm; PDI ([2]; Table 2, polydispersity value, molar ratio 1.00:7.00:57.00:35.00, N/P 35): 0.06 ± 0.01; PDI ([2]; Table 2, polydispersity value, molar ratio 1.40:11.15:38.95:48.50, N/P 65): 0.08 ± 0.02; PDI ([2]; Table 2, polydispersity value, molar ratio 2.00:16.00:22.00:60.00, N/P 35): 0.12 ± 0.01; OD 450 nm-630 nm ([3]; IV): 1.61
4 | CCCCCCC(CCCCCC)C(=O)OCCCCOC(=O)C(O)CN1CCN(CCN(CC(O)C(=O)OCCCCOC(=O)C(CCCCCC)CCCCCC)CC(O)C(=O)OCCCCOC(=O)C(CCCCCC)CCCCCC)CC1 (stereo not shown) [Compound L0186] | 1.58 × 10^8 | 2.77 × 10^8 | superior in vivo delivery efficiency | 89.99 ± 0.58 nm | 0.12 ± 0.00 | 1.70 | In vivo IVIS (liver) ([1]; Table 2, IV): 5.61 × 10^7; In vivo IVIS (spleen) ([1]; Table 2, IV): 2.65 × 10^7
5 | CCCCCCCCCCCOC(=O)CCCCCN(CCO)CCCCCCCC(=O)OC(CCCCCCCC)CCCCCCCC [SM-102, reference compound] | – | 1.40 × 10^9 | – | 81.71 ± 0.49 nm | 0.11 ± 0.01 | 1.64 | –
6 | CCCCCCOCOCCCCCCOC(=O)C(O)CN(CCCN1CCN(CCCN(CC(O)C(=O)OCCCCCCOCOCCCCCC)CC(O)C(=O)OCCCCCCOCOCCCCCC)CC1)CC(O)C(=O)OCCCCCCOCOCCCCCC (stereo not shown) [Compound L0192] | – | 5.56 × 10^10 | superior in vivo delivery efficiency | – | – | 1.68 | Particle size (nm) ([2]; Table 2, LNP formulation with mRNA, molar ratio 1.50:4.00:59.50:35.00, N/P 65): 112.83 ± 0.31 nm; Particle size (nm) ([2]; Table 2, LNP formulation with mRNA, molar ratio 1.77:14.07:49.16:35.00, N/P 54): 96.59 ± 0.78 nm; Particle size (nm) ([2]; Table 2, LNP formulation with mRNA, molar ratio 1.77:14.07:59.16:25.00, N/P 52): 113.33 ± 1.07 nm; PDI ([2]; Table 2, polydispersity value, molar ratio 1.50:4.00:59.50:35.00, N/P 65): 0.15 ± 0.01; PDI ([2]; Table 2, polydispersity value, molar ratio 1.77:14.07:49.16:35.00, N/P 54): 0.08 ± 0.02; PDI ([2]; Table 2, polydispersity value, molar ratio 1.77:14.07:59.16:25.00, N/P 52): 0.11 ± 0.02
7 | CCCCCCOC(C)OCCCCCCOC(=O)C(O)CN(CCCN1CCN(CCCN(CC(O)C(=O)OCCCCCCOC(C)OCCCCCC)CC(O)C(=O)OCCCCCCOC(C)OCCCCCC)CC1)CC(O)C(=O)OCCCCCCOC(C)OCCCCCC (stereo not shown) [Compound L0224] | – | – | – | – | – | – | In vivo IVIS ([1]; Table 4, IM): 3.31 × 10^8; In vivo IVIS ([1]; Table 4, IV): 4.84 × 10^9; PDI [2, 6]: 0.07 ± 0.02; Particle size (nm) [2, 6]: 108.57 ± 1.60 nm; PDI [2, 7]: 0.14 ± 0.01; Particle size (nm) [2, 7]: 84.67 ± 0.79 nm
8 | CCCCCCCCCCCCNC(=O)C(O)CN(CCC(=O)NCCCN1CCN(CCCNC(=O)CCN(CC(O)C(=O)NCCCCCCCCCCCC)CC(O)C(=O)NCCCCCCCCCCCC)CC1)CC(O)C(=O)NCCCCCCCCCCCC (stereo not shown) [Compound L0194] | 1.08 × 10^6 | 2.14 × 10^5 | – | 109.10 ± 0.50 nm | 0.13 ± 0.00 | – | –
9 | CC/C=C\CCOCOCCCCCCOC(=O)C(O)CN(CCCN1CCN(CCCN(CC(O)C(=O)OCCCCCCOCOCC/C=C\CC)CC(O)C(=O)OCCCCCCOCOCC/C=C\CC)CC1)CC(O)C(=O)OCCCCCCOCOCC/C=C\CC (stereo not shown) [Compound L0225] | – | – | – | – | – | – | In vivo IVIS ([1]; Table 4, IM): 3.13 × 10^8; In vivo IVIS ([1]; Table 4, IV): 2.15 × 10^9; PDI ([2]; Table 4): 0.10 ± 0.01; Particle size (nm) ([2]; Table 4): 117.87 ± 1.55 nm
